Assay results reported in patent US20030138390A1, “Use of alcohol dehydrogenase inhibitors for cosmetic treatment of keratinous materials” (priority 2000, published 2003).

Target: T1, enzyme alcohol dehydrogenase (Saccharomyces cerevisiae, UniProt P00330)
T1 construct: purchased Sigma Diagnostics 333-B
T1 sequence (P00330 1-348): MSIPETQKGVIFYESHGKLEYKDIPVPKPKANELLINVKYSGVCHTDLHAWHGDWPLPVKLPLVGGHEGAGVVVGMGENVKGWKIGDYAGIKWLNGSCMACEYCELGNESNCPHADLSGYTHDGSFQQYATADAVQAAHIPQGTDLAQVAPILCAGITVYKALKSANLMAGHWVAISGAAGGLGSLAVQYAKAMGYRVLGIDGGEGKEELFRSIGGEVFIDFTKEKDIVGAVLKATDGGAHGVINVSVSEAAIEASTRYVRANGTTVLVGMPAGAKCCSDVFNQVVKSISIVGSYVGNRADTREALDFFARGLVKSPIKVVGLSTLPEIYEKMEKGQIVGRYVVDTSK
Experiment: Test of inhibition of the activity of the enzyme alcohol dehydrogenase (Sigma Diagnostics kit ref. 333-B)
Assay type: biochemical
Settings: inhibitor 10^-3 M in the final mixture; 10 μl ethanol solution 0.08% w/v; incubated 10 minutes at room temperature; reference = 100
Description: Test of Inhibition of the Activity of the Enzyme Alcohol Dehydrogenase
The inhibition of the activity of the enzyme alcohol dehydrogenase was determined using a Sigma Diagnostics kit (ref. 333-B).
3 ml of the Alcohol Reagent, 10 μl of ethanol solution (0.08% ethanol w/v ref. 330-20) and 10 μl of inhibitor solution in distilled water are incubated for 10 minutes at room temperature.
For each assay, a blank consisting of 3 ml of the Alcohol Reagent, 10 μl of distilled water and 10 μl of inhibitor solution in distilled water is prepared.
The inhibitors are diluted so as to be at a concentration of 10^−3 M in the final mixture.
After incubation of the mixture, 100 μl are taken up and read over a 10-minute interval at 340 nm. The readings are performed in 96-well UV microplates using a UV-visible multiwell spectrophotometer (Spectramax Plus—Molecular Devices) against the blank.
The inhibition results are expressed as a percentage of absorbance at 340 nm relative to a reference (no inhibitor in the mixture): […]

Row | SMILES | percentage of absorbance at 340 nm relative to a reference (no inhibitor in the mixture) [%]
1 | CCn1nc(C)c(N)c1N [2-Ethyl-5-methyl-2H-3,4-diaminopyracole] | 31
2 | OCC(Cl)(Cl)Cl [2,2,2-Trichloroethanol] | -12
3 | Cc1cn[nH]c1 [4-Methylpyrazole] | 35
4 | c1cn[nH]c1 [Pyrazole] | 16
5 | c1c[nH]cn1 [Imidazole] | 32
